US5610160A, “Topical 5-fluorouracil prodrug composition and method” (priority 1994, dated 1997)
≈ marks a conversion by molar mass, not a printed value. Read-outs that look alike come from different tables or passages of the source.

Key:
[1] = tested on: skin malignancies; conditions: topical, cited from earlier work
[2] = cited from earlier work
[3] = Solubility of prodrug in isopropyl myristate (IPM); conditions: for solubility: isopropyl myristate, organic solvent or mixture; for CIPM, equivalent mg of 5FU/ml: IPM, 23 ± 1° C., value in parentheses
Experimental: The results from the determination of the physicochemical properties are recorded in the tables as CIPM (the saturated solubility of the prodrug in the isopropyl myristate (IPM) vehicle/formulation in which the prodrug was applied to the mouse skins), K (the partition coefficients of the prodrug between IPM and a pH 4.0 acetate buffer) and Cw (the solubility of the prodrug in pH 4.0 acetate buffer calculated from the partition coefficient and the IPM solubility).

[4] = Diffusion cell experiments: delivery of 5-FU through hairless mouse skin; format: in vitro ADME; conditions: for Ji, flux of 5-FU through the skin: from suspensions of prodrugs in IPM, hairless mouse skin; for Cs, amount of 5-FU in the skin: leached from hairless mouse skin in 24 hours subsequent to application of prodrug in vehicle for 48 hours; for Jj, flux of theophylline through the skin after application of the prodrug/formulation (relative damage): theophylline from suspension in PG
Experimental: The diffusion cell experiments were conducted as described by Sloan et al in J. Invest.
^b Flux in mg/cm^2 hour of 5FU from suspensions of prodrugs in
^c Amount of 5FU in mg leached from hairless mouse skin in 24 hours
subsequent to application of prodrug in vehicle for 48 hours.
^d Flux in mg/cm^2 hour of theophylline from suspension in PG.

[5] = 22° C., cited from earlier work
[6] = not told; conditions: 22 °C; cited from earlier work
[7] = 37° C., 80% human plasma, cited from earlier work
[8] = 37° C., 0.05 M phosphate buffer pH 7.4, cited from earlier work
[9] = shake-flask, brief shaking, IPM phase analyzed immediately; conditions: 23 ± 1 °C
[10] = Partition coefficient between IPM and pH 4.0 acetate buffer; format: physicochemical; conditions: 23 ± 1° C.
Excerpt: ^a Partition coefficient between IPM and pH 4.0 acetate buffer at 23

[11] = Buur et al (1986), compound 11 from Buur et al (1987)
[12] = 22° C., J. Pharm. Sci. 75, 522, Buur et al (1986), compound 11 from Int. J. Pharm. 36, 41 (1987)
[13] = 22° C., Int. J. Pharm. 21, 349, Buur et al (1984)

| SMILES | treating superficial lesions ([1]; actinic keratoses and basal cell carcinomas) | treating deeper lesions or actinic keratoses of the extremities [1] | log K, octanol/pH 4.0 acetate buffer ([2]; octanol/acetate buffer, pH 4) | solubility [3] | Ji, flux of 5-FU through the skin [4] | Cs, amount of 5-FU in the skin [4] | Jj, flux of theophylline through the skin after application of the prodrug/formulation (relative damage) [4] | Cw, solubility at pH 4.0 acetate buffer [5, 11] | log partition octanol / pH 4.0 acetate buffer [6] | Half-life, 80% Plasma [7, 11] | log K, octanol/pH 4.0 acetate buffer [2, 12] | CIPM, equivalent mg of 5FU/ml [3] | Half-life, Buffer [8, 11] | log partition isopropyl myristate / pH 4.0 acetate buffer [9] | K, partition coefficient between IPM and pH 4.0 acetate buffer [10] | Half-life, 80% Plasma ([7]; Buur et al (1984)) | log K, octanol/pH 4.0 acetate buffer [2, 13] | Half-life, Buffer ([8]; Buur et al (1984)) | Cw, solubility at pH 4.0 acetate buffer ([5]; Buur et al (1984)) |
| --- | --- | --- | --- | --- | --- | --- | --- | --- | --- | --- | --- | --- | --- | --- | --- | --- | --- | --- | --- |
| O=c1[nH]cc(F)c(=O)[nH]1 [Compound 5-FU, 5-fluorouracil] | successful | ineffective | -0.83 | 6.4 µg/mL (≈ 0.0492 mM) | 0.0311 mg/cm^2 hour | 0.48 mg | 0.215 mg/cm^2 hour | 11.1 mg/ml |  |  |  |  |  |  |  |  |  |  |  |
| CCOC(=O)n1cc(F)c(=O)[nH]c1=O [Compound 8] |  |  |  | 2640 µg/mL (≈ 13.1 mM) | 0.770 mg/cm^2 hour | 2.38 mg | 0.357 mg/cm^2 hour | 6.9 mg/ml | -0.17 log10 concentration ratio | 2.1 min | -0.17 | 1.70 equivalent mg of 5FU/ml | 550 min | 0.0757 concentration ratio | 0.0757 |  |  |  |  |
| CCCCOC(=O)n1cc(F)c(=O)[nH]c1=O [Compound 10] |  |  |  | 7770 µg/mL (≈ 33.8 mM) | 0.284 mg/cm^2 hour | 0.54 mg | 0.321 mg/cm^2 hour | 5.9 mg/ml | 0.89 log10 concentration ratio | 3.1 min | 0.89 |  | 550 min | 1.46 concentration ratio | 1.46 |  |  |  |  |
| CCCCCCOC(=O)n1cc(F)c(=O)[nH]c1=O [Compound 11] |  |  |  | 8700 µg/mL (≈ 33.7 mM) | 0.195 mg/cm^2 hour | 1.38 mg | 0.321 mg/cm^2 hour | 1.5 mg/ml | 2.04 log10 concentration ratio | 2.0 min | 2.04 |  | 550 min | 31.1 concentration ratio | 31.1 |  |  |  |  |
| CC(=O)n1c(=O)[nH]cc(F)c1=O [Compound 13] |  |  |  | 74 µg/mL (≈ 0.43 mM) | 0.575 mg/cm^2 hour | 1.77 mg | 0.282 mg/cm^2 hour |  | -0.34 log10 concentration ratio |  |  |  |  | 0.040 concentration ratio | 0.040 | 4.6 min | -0.34 | 43 min | 42.8 mg/ml |
| CCC(=O)n1c(=O)[nH]cc(F)c1=O [Compound 14] |  |  |  | 2620 µg/mL (≈ 14.1 mM) |  |  | 0.318 mg/cm^2 hour |  | 0.19 log10 concentration ratio |  |  | 1.83 equivalent mg of 5FU/ml |  | 0.088 concentration ratio | 0.088 | 20 min | 0.19 | 50 min | 35.3 mg/ml |
